This is an account of results in patent US6747041B1, “Heterocyclic dicarboxylic acid diamide derivatives, agricultural/horticultural insecticides and method of using the same” (Nihon Nohyaku Co., Ltd., priority 1999, dated 2004).

The structures appear in SMILES notation.

As a reminder, the melting point is the temperature of the solid-liquid transition. `Cc1cc(C(F)(C(F)(F)F)C(F)(F)F)ccc1NC(=O)c1nn(-c2ccccc2)c(Br)c1C(=O)NC(C)C` returned a melting point of 164 to 166 °C.

On to `Cc1cc(C(F)(C(F)(F)F)C(F)(F)F)ccc1NC(=O)c1ccc[n+]([O-])c1C(=O)NC(C)C`, for which the melting point was in the range of 108 to 110 °C.
